Laboratory results: patent US20170049793A1, “MOLECULAR ACTIVATORS OF THE WNT/BETA-CATENIN PATHWAY” (THE GENERAL HOSPITAL CORPORATION, priority 2009, published 2017)

How the values were obtained:
[1] = Suitability for murine therapeutic trials (toxicity, serum levels); type: in vivo, mice; details: precluding murine therapeutic trials
[2] = tested on: Axin2 expression (Wnt/β-catenin pathway) in B16 cells; test: Quantitative PCR of the Wnt/β-catenin target gene Axin2 in B16 cells; type: cell-based, murine; details: 1 μM BIO vs control cells
Procedure: Cells were cultured for approximately 72 hours until they reached 80-90% confluency. RNA was purified using the RNeasy kit using the manufacturer's protocol (Qiagen; Maryland, Md.). cDNA was synthesized using Superscript Reverse Transcriptase (Invitrogen; Grand Island, N.Y.). Light Cycler FastStart DNA Master SYBR Green1 (Roche; Mannheim, Germany) was used for real-time PCR as previously described (Major et al., Science 316:1043 (2007), which is hereby incorporated by reference in its entirety). Quantitative PCR results presented in the manuscript are representative of experiments performed on a minimum of three biologic replicates.

B16 melanoma cells = test: MTT proliferation assay in B16 melanoma cells; type: cell-based, murine; details: 1 μM BIO vs control cells
[3] = tested on: nuclear β-catenin (Wnt/β-catenin pathway) in B16 cells; test: Immunofluorescent staining of β-catenin in B16 cells; type: cell-based, murine; details: 1 μM BIO vs DMSO control
Procedure: A polyclonal rabbit anti-β-catenin antibody was used for detection of 1β-catenin (1:1000 dilution for immunoblot, 1:200 dilution for immunohistochemistry). Cells were grown on 18 mm glass coverslips, for 48-72 hours, fixed using 4% paraformaldehyde, permeabilized using 0.25% Triton X-100, and then blocked with 10% goat serum. Goat anti-rabbit Alexa Fluor-568 antibody (Molecular Probes; Eugene, Oreg.) was diluted 1:1000. Cells were counterstained for nucleic acid with DAPI (Molecular Probes; Eugene, Oreg.). Paraffin-embedded nevus sections were stained using an antibody dilution of 1:200. Cellular lysates were obtained by lysing cells on plate with a 0.1% NP-40 based buffer and analyzed by NuPage 4-12% gradient gels (Invitrogen; Grand Island, N.Y.). The WNTSA antibody was obtained from Cell Signaling Technologies (Danvers, Mass.).

## O=C1Nc2cc(Br)ccc2/C1=C1/Nc2ccccc2/C1=N\O [BIO, 6-bromoindirubin-3′-oxime]
[1]
  toxicity: obstacles relating to both toxicity
[2]
  Axin2 levels (quantitative PCR): increased Axing levels
B16 melanoma cells
  proliferation (MTT assay): decreased proliferation
[3]
  nuclear β-catenin (immunofluorescent staining): increased nuclear β-catenin
